Experimental data taken from ChEMBL document CHEMBL1201862, “PubChem BioAssay data set” (2004).
The source made the active and inactive calls. Unless noted, the rule behind the calls is not given here.

What was measured:
[1] = HepG2 cell cytotoxicity, dose response, cytotoxicity control, ATP luminescence, cherry-pick, activator set 2 (AID 1053143); assay type: functional, cell-based
[2] = biological target: T1, Low molecular weight phosphotyrosine protein phosphatase (Homo sapiens, UniProt P24666); experiment: LMPTP phosphatase inhibitors, dose response, biochemical, OMFP substrate, fluorescence intensity, set 2 (AID 743307); assay type: functional
T1 sequence (P24666 whole entry): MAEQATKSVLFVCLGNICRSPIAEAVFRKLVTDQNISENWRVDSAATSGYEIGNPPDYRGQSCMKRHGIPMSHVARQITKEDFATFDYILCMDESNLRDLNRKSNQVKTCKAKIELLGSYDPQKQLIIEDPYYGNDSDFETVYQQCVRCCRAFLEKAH

[3] = biological target: T1, Low molecular weight phosphotyrosine protein phosphatase; experiment: LMPTP phosphatase inhibitors, colorimetric pNPP readout, dose response, orthogonal assay, biochemical, absorbance, pNPP substrate, LMPTP-A isoform, set 2 (AID 743308); assay type: functional
[4] = cells
[5] = cells; conditions: HEK293
[6] = HeLa 2N DNA content increase, dose response, cell-based, IC50 (AID 1117349); assay type: functional
[7] = HeLa 4N DNA content increase, dose response, cell-based, IC50 (AID 1117351); assay type: functional
[8] = HepG2 hepatoma cell cytotoxicity, dose response, cytotoxicity control, CellTiter-Glo luminescence, dry powder, set 3 (AID 720594); assay type: functional, cell-based
[9] = HEK293T cell cytotoxicity, dose response, cytotoxicity control, CellTiter-Glo luminescence, dry powder, set 2 (AID 720595); assay type: functional, cell-based; conditions: HEK293
[10] = AlphaScreen signal interference by compounds, dose response, artefact control for ARNT/TACC3 disruptor project, biochemical, dual-tagged ARNT, dry powder (AID 720564)
[11] = THP-1 cell cytotoxicity, dose response, cytotoxicity control for Vif-APOBEC3G degradation inhibitor project, THP-1 cells (AID 1117359); assay type: functional; conditions: Human immunodeficiency virus 1, THP-1
[12] = P. falciparum Dd2 growth inhibitors, dose response, SYBR Green, dry powder samples, set 4 (AID 1159572); assay type: functional, cell-based
[13] = system: Cryptococcus neoformans; experiment: PubChem AID 686997; assay type: functional, organism-based
[14] = system: HEK293; experiment: HEK293T cell cytotoxicity, dose response, cytotoxicity control, ATP luminescence, cherry-pick samples (AID 687005); assay type: functional, cell-based; conditions: Homo sapiens;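 also: cells exposed to compound for 48 hours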
[15] = HEK293 Cytotoxicity Assay Measured in Cell-Based System Using Plate Reader - 7071-01_Inhibitor_Dose_CherryPick_Activity_Set2.; assay type: functional
[16] = Luminescence-based cell-based high throughput dose response assay to identify activators of the DAF-12 from the parasite S. stercoralis (ssDAF-12).; assay type: functional
[17] = biological target: T2, Oxysterols receptor LXR-beta (Homo sapiens, UniProt P55055); experiment: LXR agonists, Gal4 luciferase reporter, dose response, counter-screen for ssDAF-12 agonist project, cell-based, luminescence, HEK293, S. stercoralis campaign (AID 720737); assay type: functional; conditions: read-out: IC50 (the source's name)
T2 sequence (P55055 whole entry): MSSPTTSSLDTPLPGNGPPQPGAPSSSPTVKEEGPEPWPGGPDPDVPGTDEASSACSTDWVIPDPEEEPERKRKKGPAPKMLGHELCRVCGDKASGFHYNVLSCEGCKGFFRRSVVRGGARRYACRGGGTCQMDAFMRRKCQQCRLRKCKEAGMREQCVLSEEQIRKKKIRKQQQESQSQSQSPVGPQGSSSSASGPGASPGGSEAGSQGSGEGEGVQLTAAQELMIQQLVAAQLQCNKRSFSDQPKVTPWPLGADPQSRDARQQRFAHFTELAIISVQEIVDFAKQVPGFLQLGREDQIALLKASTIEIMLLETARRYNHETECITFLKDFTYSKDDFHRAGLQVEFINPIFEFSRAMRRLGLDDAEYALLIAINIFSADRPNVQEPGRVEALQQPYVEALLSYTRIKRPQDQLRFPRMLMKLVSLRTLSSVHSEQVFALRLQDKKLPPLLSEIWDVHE

[18] = biological target: T2, Oxysterols receptor LXR-beta; assay type: functional, cell-based
[19] = cells; remark: listed apart in the source
[20] = M. tuberculosis H37Rv growth inhibitors, H37Rv strain (AID 1626); assay type: functional
[21] = cytotoxicity in A549 cells, dose response, cytotoxicity control, cell-based, CellTiter-Glo luminescence, cherry-pick (AID 743484); assay type: functional
[22] = cytotoxicity in HepG2 cells, dose response, cytotoxicity control, cell-based, CellTiter-Glo luminescence, cherry-pick, set 4 (AID 743480); assay type: functional
[23] = Artemis endonuclease inhibitor potency, dose response, biochemical, fluorescence intensity (AID 720701); assay type: functional;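 also: Artemis endonuclease enzyme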
[24] = A549 cell cytotoxicity, dose response, cytotoxicity control, plate reader, dry powder, set 6 (AID 743312); assay type: functional, cell-based
[25] = cells; conditions: HEK293; remark: listed apart in the source

## Cc1nc(-c2ccc(C(=O)Nc3ccc(F)cc3)cc2)cs1
[1]
  AC50: 26 µM (active)

## c1ccc(-c2nc(NC3CCCCC3)c3ccccc3n2)cc1
[2]
  IC50: 19.1 µM (active)
[3]
  IC50: > 80 µM (inactive)

## Cn1c2ccccc2c(=O)c2ccc(F)cc21
[4]
  AC50: 7.33 µM (active)
[5]
  AC50: > 52 µM (inactive)

## CCCCCCCCCCCCCCCC[N+](C)(C)Cc1ccccc1 [CETALKONIUM CHLORIDE]
[6]
  IC50: > 10 µM (inactive)
[7]
  IC50: > 10 µM (inactive)

## CC1CCN(S(=O)(=O)c2ccc(C(=O)Nc3nnc(-c4ccccc4)o3)cc2)CC1
[8]
  AC50: > 52 µM (inactive)
[9]
  AC50: 2.57 µM (active)
[10]
  AC50: 86.8 µM (active)

## CCC(C)(c1nnnn1-c1c(C)cccc1C)N(N=O)c1ccccc1Cl (stereo not given)
[11]
  CC50: > 40 µM (active)

## COc1ccc2c3c([nH]c2c1)[C@H](CO)NCC31CCN(C(=O)Nc2ccccc2F)CC1
[12]
  AC50: 1.52 µM (active)

## COC(=O)C1=C(C)N(CC(C)C)C(=S)NC1c1ccc(F)cc1 (stereo not given)
[13]
  AC50: > 84 µM (inactive)
[14]
  AC50: 40.3 µM (active)
[15]
  AC50: 40.3 µM (active)

## O=[N+]([O-])c1ccc2oc(-c3cccc(O)c3)nc2c1
[16]
  IC50: > 67.5 µM (inactive)
[17]
  EC50: > 67.5 µM (inactive)
[18]
  EC50: > 67.6 µM (inactive)
[19]
  EC50: > 67.6 µM (inactive)

## COc1ccc(NC(=O)c2ccc(-c3ccc([N+](=O)[O-])cc3)o2)cc1
[20]
  IC50: > 100 µM (active)
[21]
  AC50: > 52 µM (inactive)
[22]
  AC50: > 52 µM (inactive)

## CCCCn1/c(=N/C(=O)c2ccc3c(c2)OCO3)c(C#N)cc2c(=O)n3cccc(C)c3nc21
[23]
  IC50: > 20 µM (inactive)

## Cc1ccc(OCCn2cnc3ccccc32)c(C(C)C)c1
[24]
  AC50: 24.5 µM (active)
[25]
  AC50: 39.8 µM (active)
